Reference: PubChem BioAssay AID1963432 (Molecular Pharmacology Branch, DTP, NCI, 2024)

Tested on: SYO-1 complex spheroid growth, percent test/control
Assay: Anticancer human tumor SYO-1 cell line growth inhibition [Asc];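 also: compound exposure lasted 7 days after spheroids grew 3 days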;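 as to viability, T/C: 100% = DMSO vehicle control viability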
Conditions: for IC50: curve of first compound; for viability, T/C: stronger effect = lower value
Method in brief: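 Complex spheroids combining tumor cells with HUVEC endothelial cells and human MSCs, at 37 degrees C, 5% CO2; agents tested alone or combined, half-log dilutions from at or near clinical Cmax, or 10 microM if Cmax unknown.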

[1] = second compound 0.00949 µM, first compound 0.00316 µM
[2] = second compound 0.00949 µM, first compound 0.01 µM
[3] = second compound 0.00949 µM, first compound 0.0316 µM
[4] = second compound 0.00949 µM, first compound 0.1 µM
[5] = second compound 0.03 µM, first compound 0.00316 µM
[6] = second compound 0.03 µM, first compound 0.01 µM
[7] = second compound 0.03 µM, first compound 0.0316 µM
[8] = second compound 0.03 µM, first compound 0.1 µM
[9] = second compound 0.0949 µM, first compound 0.00316 µM
[10] = second compound 0.0949 µM, first compound 0.01 µM
[11] = second compound 0.0949 µM, first compound 0.0316 µM
[12] = second compound 0.0949 µM, first compound 0.1 µM
[13] = second compound 0.3 µM, first compound 0.00316 µM
[14] = second compound 0.3 µM, first compound 0.01 µM
[15] = second compound 0.3 µM, first compound 0.0316 µM
[16] = second compound 0.3 µM, first compound 0.1 µM
[17] = second compound 0.949 µM, first compound 0.00316 µM
[18] = second compound 0.949 µM, first compound 0.01 µM
[19] = second compound 0.949 µM, first compound 0.0316 µM
[20] = second compound 0.949 µM, first compound 0.1 µM
[21] = second compound 3 µM, first compound 0.00316 µM
[22] = second compound 3 µM, first compound 0.01 µM
[23] = second compound 3 µM, first compound 0.0316 µM
[24] = second compound 3 µM, first compound 0.1 µM

COc1c(OCCCN2CCOCC2)ccc2c3n(c(=NC(=O)c4cnc(N)nc4)nc12)CCN3 + CCN1C(C(=O)NC23CCC(C(=O)O)(CC2)CC3)C(c2cccc(Cl)c2F)C2(C(=O)Nc3cc(Cl)ccc32)C12CCCCC2 was tested, and the IC50 (second compound 0.00949 µM) was 800 nM, the IC50 (second compound 0.03 µM) was 540 nM and the IC50 (second compound 0.0949 µM) was 123 nM. The IC50 (second compound 0.3 µM) was under 3.16 nM, the IC50 (second compound 0.949 µM) was under 3.16 nM and the IC50 (second compound 3 µM) was under 3.16 nM. The viability, T/C [1] was 110%, the viability, T/C [2] was 109% and the viability, T/C [3] was 101%. For the same compound, the viability, T/C [4] was 85.2%, the viability, T/C (second compound 0.00949 µM, first compound 0.316 µM) was 75.4% and the viability, T/C (second compound 0.00949 µM, first compound 1 µM) was 43.4%. The viability, T/C [5] was 103%, the viability, T/C [6] was 103% and the viability, T/C [7] was 96.9%. The viability, T/C [8] was 80.8%, the viability, T/C (second compound 0.03 µM, first compound 0.316 µM) was 69.3% and the viability, T/C (second compound 0.03 µM, first compound 1 µM) was 30.6%. For the same compound, the viability, T/C [9] was 85.8%, the viability, T/C [10] was 86.3% and the viability, T/C [11] was 77.2%. It also gave a viability, T/C [12] of 52.1%, a viability, T/C (second compound 0.0949 µM, first compound 0.316 µM) of 32.2% and a viability, T/C (second compound 0.0949 µM, first compound 1 µM) of 16%. It also gave a viability, T/C [13] of 20.3%, a viability, T/C [14] of 23.4% and a viability, T/C [15] of 19.3%. The viability, T/C [16] was 16.3%, the viability, T/C (second compound 0.3 µM, first compound 0.316 µM) was 12% and the viability, T/C (second compound 0.3 µM, first compound 1 µM) was 2.7%. It also gave a viability, T/C [17] of 2.01%, a viability, T/C [18] of 3.89% and a viability, T/C [19] of 3.28%. For the same compound, the viability, T/C [20] was 2.38%, the viability, T/C (second compound 0.949 µM, first compound 0.316 µM) was 3.39% and the viability, T/C (second compound 0.949 µM, first compound 1 µM) was 0.44%. It also gave a viability, T/C [21] of 1.01%, a viability, T/C [22] of 1.03% and a viability, T/C [23] of 1.75%. For the same compound, the viability, T/C [24] was 0.55%, the viability, T/C (second compound 3 µM, first compound 0.316 µM) was 0.57% and the viability, T/C (second compound 3 µM, first compound 1 µM) was 0.45%.
With NC(=O)C(=Cn1cnc(-c2cc(C(F)(F)F)cc(C(F)(F)F)c2)n1)c1cncnc1 + CCN1C(C(=O)NC23CCC(C(=O)O)(CC2)CC3)C(c2cccc(Cl)c2F)C2(C(=O)Nc3cc(Cl)ccc32)C12CCCCC2 the IC50 (second compound 0.00949 µM) was 165 nM, the IC50 (second compound 0.03 µM) was 134 nM and the IC50 (second compound 0.0949 µM) was 41.7 nM. The IC50 (second compound 0.3 µM) was under 0.949 nM, the IC50 (second compound 0.949 µM) was under 0.949 nM and the IC50 (second compound 3 µM) was under 0.949 nM. The viability, T/C (second compound 0.00949 µM, first compound 0.000949 µM) was 96.3%, the viability, T/C (second compound 0.00949 µM, first compound 0.003 µM) was 96.1% and the viability, T/C (second compound 0.00949 µM, first compound 0.00949 µM) was 99.3%. The viability, T/C (second compound 0.00949 µM, first compound 0.03 µM) was 87.8%, the viability, T/C (second compound 0.00949 µM, first compound 0.0949 µM) was 87.5% and the viability, T/C (second compound 0.00949 µM, first compound 0.3 µM) was 9.44%. It also gave a viability, T/C (second compound 0.03 µM, first compound 0.000949 µM) of 99.4%, a viability, T/C (second compound 0.03 µM, first compound 0.003 µM) of 94.6% and a viability, T/C (second compound 0.03 µM, first compound 0.00949 µM) of 90.1%. The viability, T/C (second compound 0.03 µM, first compound 0.03 µM) was 90.5%, the viability, T/C (second compound 0.03 µM, first compound 0.0949 µM) was 69.4% and the viability, T/C (second compound 0.03 µM, first compound 0.3 µM) was 5.52%. The viability, T/C (second compound 0.0949 µM, first compound 0.000949 µM) was 83.4%, the viability, T/C (second compound 0.0949 µM, first compound 0.003 µM) was 80.9% and the viability, T/C (second compound 0.0949 µM, first compound 0.00949 µM) was 76.6%. It also gave a viability, T/C (second compound 0.0949 µM, first compound 0.03 µM) of 64.6%, a viability, T/C (second compound 0.0949 µM, first compound 0.0949 µM) of 14.6% and a viability, T/C (second compound 0.0949 µM, first compound 0.3 µM) of 1.56%. For the same compound, the viability, T/C (second compound 0.3 µM, first compound 0.000949 µM) was 20.1%, the viability, T/C (second compound 0.3 µM, first compound 0.003 µM) was 21.6% and the viability, T/C (second compound 0.3 µM, first compound 0.00949 µM) was 12.9%. For the same compound, the viability, T/C (second compound 0.3 µM, first compound 0.03 µM) was 8.55%, the viability, T/C (second compound 0.3 µM, first compound 0.0949 µM) was 1.72% and the viability, T/C (second compound 0.3 µM, first compound 0.3 µM) was 0.32%. For the same compound, the viability, T/C (second compound 0.949 µM, first compound 0.000949 µM) was 2.25%, the viability, T/C (second compound 0.949 µM, first compound 0.003 µM) was 1.92% and the viability, T/C (second compound 0.949 µM, first compound 0.00949 µM) was 1.01%. It also gave a viability, T/C (second compound 0.949 µM, first compound 0.03 µM) of 0.78%, a viability, T/C (second compound 0.949 µM, first compound 0.0949 µM) of 0.55% and a viability, T/C (second compound 0.949 µM, first compound 0.3 µM) of 1.54%. The viability, T/C (second compound 3 µM, first compound 0.000949 µM) was 0.73%, the viability, T/C (second compound 3 µM, first compound 0.003 µM) was 1.1% and the viability, T/C (second compound 3 µM, first compound 0.00949 µM) was 0.93%. It also gave a viability, T/C (second compound 3 µM, first compound 0.03 µM) of 1.16%, a viability, T/C (second compound 3 µM, first compound 0.0949 µM) of 1.19% and a viability, T/C (second compound 3 µM, first compound 0.3 µM) of 2%.
NC1CCC(NC2CC2c2ccccc2)CC1 (stereo unspecified) + CCN1C(C(=O)NC23CCC(C(=O)O)(CC2)CC3)C(c2cccc(Cl)c2F)C2(C(=O)Nc3cc(Cl)ccc32)C12CCCCC2 was tested, and the IC50 (second compound 0.00949 µM) was over 100 nM, the IC50 (second compound 0.03 µM) was over 100 nM and the IC50 (second compound 0.0949 µM) was over 100 nM. It also gave an IC50 (second compound 0.3 µM) of under 0.316 nM, an IC50 (second compound 0.949 µM) of under 0.316 nM and an IC50 (second compound 3 µM) of under 0.316 nM. For the same compound, the viability, T/C (second compound 0.00949 µM, first compound 0.000316 µM) was 102%, the viability, T/C (second compound 0.00949 µM, first compound 0.001 µM) was 96.7% and the viability, T/C [1] was 88%. The viability, T/C [2] was 88%, the viability, T/C [3] was 94.2% and the viability, T/C [4] was 91.1%. It also gave a viability, T/C (second compound 0.03 µM, first compound 0.000316 µM) of 98%, a viability, T/C (second compound 0.03 µM, first compound 0.001 µM) of 96.8% and a viability, T/C [5] of 88.9%. It also gave a viability, T/C [6] of 84.6%, a viability, T/C [7] of 85.9% and a viability, T/C [8] of 89.5%. It also gave a viability, T/C (second compound 0.0949 µM, first compound 0.000316 µM) of 84.9%, a viability, T/C (second compound 0.0949 µM, first compound 0.001 µM) of 74.4% and a viability, T/C [9] of 57.8%. It also gave a viability, T/C [10] of 53.4%, a viability, T/C [11] of 55.2% and a viability, T/C [12] of 51.7%. For the same compound, the viability, T/C (second compound 0.3 µM, first compound 0.000316 µM) was 18.6%, the viability, T/C (second compound 0.3 µM, first compound 0.001 µM) was 18.2% and the viability, T/C [13] was 6.03%. For the same compound, the viability, T/C [14] was 8.44%, the viability, T/C [15] was 13.7% and the viability, T/C [16] was 11.2%. It also gave a viability, T/C (second compound 0.949 µM, first compound 0.000316 µM) of 1.71%, a viability, T/C (second compound 0.949 µM, first compound 0.001 µM) of 2.22% and a viability, T/C [17] of 1.78%. It also gave a viability, T/C [18] of 1.87%, a viability, T/C [19] of 1.95% and a viability, T/C [20] of 1.33%. The viability, T/C (second compound 3 µM, first compound 0.000316 µM) was 1.21%, the viability, T/C (second compound 3 µM, first compound 0.001 µM) was 1.53% and the viability, T/C [21] was 2.09%. It also gave a viability, T/C [22] of 1.25%, a viability, T/C [23] of 1.49% and a viability, T/C [24] of 1.44%.
